How the values were obtained:
[1] = tested on: UBC12 protein NEDDylation; assay: Bead method: NEDD8 level on UBC12 beads with HL60 cell extracts; format: cell-based; details: HL60 cells, 1 μM, 6 h
Procedure: HL60 cells were first treated with 1 μM of MLN4924, DMSO, or only with the culture medium for 6 h. Beads supporting UBC12, (NEDDylation E2 enzyme, which was previously reported to be modified by NEDD8) were contacted with said cell extracts, and NEDD8 level was assessed.
(§1) Cells grown at a 5-8.10^5/mL density were spun down (300 g) at 4° C. for 5 min and washed once with PBS. After pellet resuspension in 1 mL of PBS, they were centrifuged again (16,000 g) at 4° C. for 5 min. Pellets were resuspended and incubated at 4° C. for 30 min in a hypotonic buffer (20 mM HEPES pH 7.5, 1.5 mM MgCl2, 5 mM KCl, 1 mM DTT and 1 mg/L of aprotinine, leupeptin and pepstatin) in a volume of 25 μL per 2.10^6 cells. Cell lysis was achieved through 4 freezing/thawing cycles using liquid nitrogen and DNA was sheared owing to 10 passages through a 20-1/2 G needle. Extracts were finally centrifuged twice (16000 g) at 4° C. for 20 min and supernatants were aliquoted, flash-frozen and kept at −80° C. until use. […]
(§2) SUMO-1-, SUMO-2-, NEDD8 and Ubiquitin vinyl sulfones (0.5 μM each) were added to cellular extracts (10 μL), which were incubated at 4° C. for 15 min. […] They were then resuspended in 200 μL PBS and flow-cytometry-analysed using the LSR Fortessa device from BD Biosciences. Results were analysed using the FlowJow software.

[2] = tested on: SUMOylation activity on ZMYM5 protein; assay: Bead method: SUMOylation activity on ZMYM5 with HL60 cell extracts; format: cell-based; details: HL60 cells, 0-500 nM, 6 h; ZMYM5 beads
Procedure: ZMYM5 was used as a marker of SUMOylation, OTUD6B as a marker of NEDDylation, and TMEM92, BEAN and WBP2 as a marker of ubiquitinylation. […]
(§3) Cells grown at a 5-8.10^5/mL density were spun down (300 g) at 4° C. for 5 min and washed once with PBS. After pellet resuspension in 1 mL of PBS, they were centrifuged again (16,000 g) at 4° C. for 5 min. Pellets were resuspended and incubated at 4° C. for 30 min in a hypotonic buffer (20 mM HEPES pH 7.5, 1.5 mM MgCl2, 5 mM KCl, 1 mM DTT and 1 mg/L of aprotinine, leupeptin and pepstatin) in a volume of 25 μL per 2.10^6 cells. Cell lysis was achieved through 4 freezing/thawing cycles using liquid nitrogen and DNA was sheared owing to 10 passages through a 20-1/2 G needle. Extracts were finally centrifuged twice (16000 g) at 4° C. for 20 min and supernatants were aliquoted, flash-frozen and kept at −80° C. until use.
2.10^5 magnetic MagPlex XMap beads (low concentration) from Luminex were transferred to a low binding microtube (Eppendorf) and washed using 500 mM NaCl. […]
as §2

[3] = tested on: ubiquitination activity (TMEM92, BEAN1, WBP2); assay: Bead method: ubiquitination activity on TMEM92, BEAN1 or WBP2 beads with HL60 cell extracts; format: cell-based; details: HL60 cells, 6 h
Procedure: Cells extracts were prepared and contacted with beads coated with either TMEM92, BEAN1 or WBP2 proteins.
as §3
2.10^5 magnetic MagPlex XMap beads (low concentration) from Luminex were transferred to a low binding microtube (Eppendorf) and washed using 500 mM NaCl. They were then resuspended in 50 μL of 50 mM MES pH 6.1 and incubated in the presence of 5 mg/mL 1-ethyl-3-(3-dimethylaminopropyl) carbodiimide hydrochloride (EDC, Pierce) and 5 mg/mL Sulfo-NHS (Pierce) at room temperature for 20 min. Beads were then washed in PBS containing 500 mM NaCl and incubated with 7 μg of recombinant protein to be coupled in 100 μL PBS at room temperature for 2 hrs. They were then washed twice with PBS containing 0.1% BSA, 0.02% Tween 20, 0.05% sodium azide and 500 mM NaCland stored at 4° C. in PBS containing 0.1% BSA, 0.02% Tween-20, 0.05% sodium azide.
as §2, with “min. Control extracts were also incubated with 50 mM NEM.” for “min.”

NEDDylation of OTUD6B = assay: Bead method: NEDD8 addition on OTUD6B beads with HL60 cell extracts; format: cell-based; details: HL60 cells, 0-500 nM, 6 h
Procedure: FIG. 8 represents graphs evaluating Ubiquitin addition on beads coated with TMEM92 (1), BEAN1 (2), WBP2 (3) proteins, SUMO1 addition on beads coated with ZMYM5 (4) or NEDD8 addition on beads coated with OTUD6B (5). […] As control, cell extracts treated N-ethylmaleimide (NEM) are used (A).
ZMYM5 was used as a marker of SUMOylation, OTUD6B as a marker of NEDDylation, and TMEM92, BEAN and WBP2 as a marker of ubiquitinylation.
as §1, with “needle.” for “needle. Extracts were finally centrifuged twice (16000 g) at 4° C. for 20 min and supernatants were aliquoted, flash-frozen and kept at −80° C. until use.”
as §2

SUMOylation activity = details: read-out: in vitro IC50 (SUMOylation); cited from earlier work
[4] = tested on: NEDDylation (OTUD6B protein); details: read-out: in vitro IC50 (NEDDylation) on OTUD6B protein; cited from earlier work

Row | SMILES | UBC12 protein NEDDylation [1] | effect on SUMOylation activity [2] | ubiquitination activity inhibited ([3]; 10 nM or more) | TMEM92 ubiquitination inhibition ([3]; 500 nM, TMEM92 beads) | WBP2 and BEAN1 ubiquitination remaining ([3]; 500 nM, WBP2 and BEAN1 beads) | effect on NEDDylation (OTUD6B beads) (NEDDylation of OTUD6B) | IC50 (SUMOylation activity) [nM] | IC50 [4] [nM]
1 | NS(=O)(=O)OC[C@@H]1C[C@@H](n2ccc3c(N[C@H]4CCc5ccccc54)ncnc32)CC1O (some centres unmarked) [MLN4924] | decrease | – | – | – | – | – | – | –
2 | NS(=O)(=O)OC[C@H]1C[C@@H](Nc2ccnc3cc(-c4cccc(SC(F)(F)F)c4)nn23)[C@H](O)[C@@H]1O [MLN7243] | – | affects SUMOylation activity, but with large amounts of inhibitor | more than 50% | maximal | residual levels | a decrease slightly different | 850 | 28

From patent US12546780B2, “Method for identifying ubiquitin and ubiquitin-like enzyme activities” (CENTRE NATIONAL DE LA RECHERCHE SCIENTIFIQUE, priority 2019, dated 2026)
